Assay results as given in patent US9988372B2, “Crystalline form of 5-chloro-N-({(5S)-2-oxo-3-[4-(5,6-dihydro-4H-[1,2,4]triazin-1-yl)phenyl]-1,3-oxazolidin-5-yl}methyl)thiophene-2-carboxamide methanesulfonate and pharmaceutical composition comprising same” (GREEN CROSS CORPORATION, priority 2014, dated 2018).
Entries after “also recorded” stand apart in the source; their conditions may differ.

Experiments:
Assay type in all cases: physicochemical
[1] = Stability in solvent slurry system (interconversion of crystalline forms, final form identified by DSC); conditions: for Final form (DSC peak): slurry; for Interconversion of crystalline form while stirred in solvent: stirred in the solvent for 24 hours, various solvents (summary of Table 4)
Experimental: 1) Measurement of Stability in Solvent Slurry System
In order to determine whether one crystalline form is interconverted into another crystalline form in a stirred solvent, a slurry test was performed in different solvents at room temperature.
First, an automated polyblock reactor was filled with each of the solvents listed in Table 4 below at room temperature (30±5° C.). […] Thereafter, an anti-solvent listed in Table 4 below (n-butanol or IPA) was added into the reactor for 30±15 minutes and stirred for 30±15 minutes until a transparent solution was obtained. The resultant was cooled to a temperature of 0±5° C., stirred for 2-3 hours, and then filtered at 0±5° C. The obtained material was dried at 60±5° C. for 3 to 4 hours in VTD, and then DSC analysis was performed for the obtained sample to identify the final crystalline form.
DSC analysis was performed for the obtained sample to identify the final crystalline form.

[2] = Interconversion at high temperature (final form identified by DSC); conditions: for Final form (DSC peak): dried at 80±5° C. in non-vacuum state, then cooled to 30±5° C., methanesulfonate; for Stability at high temperature: summary of Table 5
Experimental: 2) Measurement of Interconversion at High Temperature
In order to determine the interconversion of crystalline forms at a high temperature, each of Crystalline Forms 1 and 5 was dried at 80±5° C. in non-vacuum state, and then cooled to a temperature of 30±5° C. DSC analysis was performed for the obtained samples to identify the final crystalline form.

[3] = Stability under physical stimulus (multi-milling, manual grinding, humidification; final form identified by DSC); conditions: methanesulfonate; for Stability under physical stimulus: milling, grinding and humidification (summary of Table 6)
Experimental: 3) Measurement of Stability Under Physical Stimulus
Multi-milling, manual grinding and humidification test were performed for the crystalline forms of the present invention to confirm their stability under physical stimulus. For multi-milling test, each of Crystalline Forms 1 and 5 was milled at 3,000 rpm by using a prototype multi-mill instrument (Sreenex Machines Pvt. Ltd.). For manual grinding, each of the crystalline forms was gradually ground by using a pestle and mortar. In the humidification test, Crystalline Forms 1 and 5 were stored at 30° C. and 90% RH for 24 hours.
DSC analysis was performed for the crystalline forms obtained from the tests to identify the final crystalline form.

[4] = Solubility in methanol solvent; conditions: in the methanol solvent; methanesulfonate
Experimental: The solubility of each of Crystalline Forms 1 and 5 of the present invention was measured after being dissolved in the methanol solvent.

[5] = Stability in solvent slurry system (interconversion of crystalline forms, final form identified by DSC); conditions: Dimethyl acetamide: EA, solvent 3 vol, anti-solvent 20 vol
[6] = Methanol: IPA, solvent 7 vol, anti-solvent 20 vol, methanesulfonate
[7] = Methanol: n-butanol, solvent 7 vol, anti-solvent 20 vol, methanesulfonate
[8] = solvent system Acetonitrile 10 vol, no anti-solvent, methanesulfonate
[9] = solvent system Isopropyl alcohol (IPA) 10 vol, no anti-solvent, methanesulfonate

| SMILES | Final form (DSC peak) [1, 6] | Final form (DSC peak) [1, 7] | Final form (DSC peak) [1, 8] | Final form (DSC peak) ([1]; solvent system Hexane 10 vol, no anti-solvent) | Final form (DSC peak) [1, 9] | Interconversion of crystalline form while stirred in solvent ([1]; methanesulfonate) | Final form (DSC peak) [2] | Stability at high temperature [2] | Final form ([3]; Humidification, stored at 30° C. and 90% RH for 24 hours) | Final form ([3]; Manual grinding with pestle and mortar) | Final form ([3]; Multi-milling at 3,000 rpm) | Stability under physical stimulus [3] | solubility [4] | Final form (DSC peak) ([1]; solvent system Ethyl acetate (EA) 10 vol, no anti-solvent) | Final form (DSC peak) ([1]; solvent system Heptane 10 vol, no anti-solvent) | Final form (DSC peak) ([1]; solvent system Methyl tert-butyl ether (MTBE) 10 vol, no anti-solvent) | Final form (DSC peak) ([1]; solvent system n-butanol 10 vol, no anti-solvent) | Final form (DSC peak) [5] |
| --- | --- | --- | --- | --- | --- | --- | --- | --- | --- | --- | --- | --- | --- | --- | --- | --- | --- | --- |
| O=C(NC[C@H]1CN(c2ccc(N3CCNC=N3)cc2)C(=O)O1)c1ccc(Cl)s1 [Crystalline Form 1, 5-chloro-N-({(5S)-2-oxo-3-[4-(5,6-dihydro-4H-[1,2,4]triazin-1-yl)phenyl]-1,3-oxazolidin-5-yl}methyl)thiophene-2-carboxamide methanesulfonate] | Mixed crystalline forms | Crystalline Form 5 (187.7) | Mixed crystalline forms | Mixed crystalline forms | Crystalline Form 5 (187.0) | tends to convert into Crystalline Form 5 | Crystalline Form 1 (178.0) | stable at high temperature | Crystalline Form 1 | Crystalline Form 1 | Crystalline Form 1 | stability without change of crystalline forms; also recorded: stable under physical stimulus | 70 mg/mL | – | – | – | – | – |
| O=C(NC[C@H]1CN(c2ccc(N3CCNC=N3)cc2)C(=O)O1)c1ccc(Cl)s1 [Crystalline Form 5, 5-chloro-N-({(5S)-2-oxo-3-[4-(5,6-dihydro-4H-[1,2,4]triazin-1-yl)phenyl]-1,3-oxazolidin-5-yl}methyl)thiophene-2-carboxamide methanesulfonate] | Crystalline Form 5 (186.80) | Crystalline Form 5 (186.27) | Crystalline Form 5 (186.88) | – | Crystalline Form 5 (186.33) | maintains the initial form | Crystalline Form 5 (187.0) | stable at high temperature | – | – | – | stability without change of crystalline forms; also recorded: stable under physical stimulus | 30 mg/mL | Crystalline Form 5 (186.48) | Crystalline Form 5 (186.44) | Crystalline Form 5 (186.45) | Crystalline Form 5 (186.76) | Crystalline Form 5 (187.05) |
